Assay results reported in patent US12226386B2, “Compositions and methods for treating biofilms” (The Regents of the University of California, priority 2018, dated 2025).
Like-named read-outs stand apart in the source and are kept apart here.

Columns and labels:
[1] = system: S. aureus (MRSA) biofilms; test: in vitro biofilm disruption assay, bacterial; assay type: cell-based; settings: Staphylococcus aureus, 24 h
[2] = system: bacterial biofilms (MRSA); test: biofilm assays (sustained inhibition and/or disruption), bacterial; assay type: cell-based, Staphylococcus aureus; settings: Tables 4 and 5
Method: (§1) Other amino acids in the blood of animals could combat bacterial and fungal biofilm and therefore may be useful in treating these bacterial and fungal infections that would lie on the external surfaces of infected animals such as humans and could also be used to combat these pathogens on instruments and surfaces that need to be treated. Two types of biofilm assays were performed: a sustained inhibition assay and a disruption assay. The sustained inhibition assay assessed the compound's ability to prevent biofilm development throughout all stages of biofilm formation, while the disruption assay assessed the compound's ability to break up an existing mature biofilm.
(§2) For fungal biofilm assays, all solutions were prepared in RPMI 1640 medium. All bacterial biofilm solutions were prepared in Tryptic Soy Broth (TSB), supplemented with 1% glucose (henceforth referred to as TSB-G). All subsequent procedures were performed in a manner that maintained sterility. A solution of each amino acid to be tested was prepared in weight to volume concentrations ranging from 0.1-5.0%. Amino acids were also tested in combinations. Compound solutions were homogenized with gentle agitation in the dark (4° C., 24 hours) before use.
(§3) Bacterial strains were streaked on Blood Agar plates (5% sheep blood in Tryptic Soy Agar) and incubated at 37° C. for 24 hours. A single colony from each strain to be tested was inoculated in a TSB broth and grown for 12 hours, at 37° C. shaking at 225 rpm. For the bacterial biofilm inhibition assays, 1 μL of saturated overnight cell culture was added to either 80 μL of TSB-G, or TSB-G supplemented with the amino acid compound solution to be tested, in a 384-well plate. The cells were allowed to adhere to the plate for 60 minutes at 37° C. without shaking. The media was carefully aspirated and 80 μL of TSB-G, or TSB-G supplemented with the amino acid compound solution was added to the plate. The plate was further incubated for 24 hours at 37° C. without shaking. Media was carefully aspirated and the biofilm was measured by optical density at 600 nm. Eight or twelve replicates were performed for each tested condition and the reported values are normalized to the control (TSB-G media only). For the bacterial biofilm disruption assays, 80 μL of TSB-G was added to the plate, along with 1 μL of overnight cell culture. The cells were allowed to adhere to the plate for 60 minutes at 37° C. with no shaking. The media was carefully aspirated and 80 μL of TSB-G was added to the plate. The plate was further incubated for 24 hours at 37° C. with no shaking. Media was carefully aspirated from the mature biofilm and 80 μL of TSB-G, or TSB-G supplemented with the amino acid to be tested, was gently added to the plate. The plate was further incubated for 24 hours at 37° C. without shaking. Media was aspirated and the biofilm was measured by optical density at 600 nm. Twelve replicates were performed for each tested condition and the reported values are normalized to the control (TSB-G media only).

[3] = system: S. aureus (MRSA) biofilms; test: in vitro sustained inhibition biofilm assay, bacterial; assay type: cell-based, Staphylococcus aureus
Method: In vitro biofilm formation was tested using two assays, sustained inhibition and disruption. Both assays assess biofilm formed on polystyrene plates. The first, tests the effects of amino acid solution on a developing biofilm, while the latter tests the effects of the solution on a pre-formed mature biofilm, both compared to media without supplemented amino acids.
as §1, §2, §3
For inhibition assay, 1 μl of overnight cell culture was added to either 80 μl of TSB-G, or TSB-G supplemented with the amino acid to be tested, in a 384-well plate. The cells were allowed to adhere to the plate for 60 minutes at 37° C. with no shaking. The media was carefully aspirated and 80 μl of TSB-G, or TSB-G supplemented with amino acid was added to the plate. The plate was further incubated for 24 hours at 37° C. with no shaking. Media was carefully aspirated and the biofilm was measured by optical density at 600 nm. […]

C. albicans biofilms = test: in vitro sustained inhibition biofilm assay, fungal; assay type: cell-based, Candida albicans; settings: 1% amino acid, p<0.001
Method: Two types of biofilm assays were performed: a sustained inhibition assay and a disruption assay.
as §2
Fungal strains were streaked on Yeast Peptone Dextrose (YPD) agar plates and incubated at 30° C. for 48 hours. A single colony from each strain to be tested was inoculated into YPD broth and grown for 12 hours, at 30° C., shaking at 225 rpm. For the fungal biofilm inhibition assay, 1 μl of saturated overnight cell culture was added to either 80 μL of RPMI-1640 or RPMI-1640 supplemented with the amino acid compound solution to be tested, in a 384-well plate. […] Media was carefully aspirated and the biofilm was measured by optical density at 600 nm. Twelve replicates were performed for each tested condition and the reported values are normalized to the control (RPMI-1640 media only). For the fungal biofilm disruption assays, 80 μL of RPMI-1640 was added to the plate, along with 1 μL of overnight cell culture. […] Loosely bound cells were washed once with PBS and 80 μL of RPMI-1640 was added to the plate. […] Media was carefully aspirated from the mature biofilm and 80 μL of RPMI-1640, or RPMI-1640 supplemented with the amino acid compound solution to be tested, was gently added to the plate. […] Media was carefully aspirated and the biofilm was measured by optical density at 600 nm. Twelve replicates were performed for each tested condition and the reported values are normalized to the control (RPMI-1640 media only).
The plate was further incubated for 24 hours at 37° C. with shaking (350 rpm). Media was carefully aspirated and the biofilm was measured by optical density at 600 nm.

[4] = disruption, S. aureus, 1% amino acid, p<0.001, read-out: Reduce B Biofilm
[5] = sustained inhibition, S. aureus, 1% amino acid, p<0.001

Compound | inhibition at 1 % ([1]; read-out: Reduce B Biofilm) | effect on MRSA biofilms in inhibition and disruption assays [2] | Reduce B Biofilm ([3]; MRSA) | Reduce F Biofilm (C. albicans biofilms) | inhibition at 1 % [1, 4] | Reduce B Biofilm [3, 5]
N[C@@H](CCC(=O)O)C(=O)O [Glutamic Acid, L-glutamic acid] | > 30% | both inhibited and disrupted | ●● (two dots [i.e. ●●] signifies major effect (greater than about 30% change)) | ●● (two dots [i.e. ●●] signifies major effect (greater than about 30% change)) |  | 
N[C@@H](CS)C(=O)O [Cysteine, L-cysteine] |  | both inhibited and disrupted |  | ●● (two dots [i.e. ●●] signifies major effect (greater than about 30% change)) | > 30% | ●● (two dots [i.e. ●●] signifies major effect (greater than about 30% change))
N[C@@H](CC(=O)O)C(=O)O [Aspartic Acid, L-aspartic acid] |  | both inhibited and disrupted |  | ●● (two dots [i.e. ●●] signifies major effect (greater than about 30% change)) | > 30% | ●● (two dots [i.e. ●●] signifies major effect (greater than about 30% change))
